Values after ≈ are worked out from the molar mass of the structure shown. Values joined by “and” are separate entries in the source; they are usually repeats but may differ in a detail not shown here. Equal entries are not always repeated. Where two headings read alike, the source gives them in different places.
Legend:
[1] = test system: Vero cells; test: Cytotoxicity effect on Vero cells (MTS-PMS assay); type: cell-based, African green monkey; details: Chlorocebus sabaeus, read-out: EC50 against Vero cells
Method: Vero cells were harvested by trypsinization when it reached 80–90% confluence. A volume of 100 μl Vero cells (6 x 10^4 cells/ml) in GM was cultured in triplicate wells of a 96-well plate and incubated for 24 hours.
MTS solution was prepared (2 mg/ml) by dissolving the powder in PBS. Exposure to light was avoided during the preparation. PMS (0.92 mg/ml) was similarly prepared in PBS and both solutions were stored at -20 °C. A volume of 20 μl of MTS solution was added into each well and the cells were incubated for one hour in a CO2 incubator [23, 24]. The absorbance (abs) was then measured at 490 nm using a microplate reader (Thermo Scientific Multiskan®Spectrum, USA). The percentage of cell viability was calculated using the following formula [25, 26]. The graphs were plotted and analyses their statistical data using Prism 5.0 (GraphPad Software Inc., CA USA) (S1 Dataset and S3 Dataset).
%ofcellviability=Opticaldensity(OD)oftreatedcell/Opticaldensity(OD)ofuntreatedcell(cellonly)

[2] = test system: T. gondii tachyzoites RH strain; test: Treatment of T. gondii-infected Vero cells (MTS-PMS assay); type: cell-based, Toxoplasma gondii; details: for EC50: Toxoplasma gondii, read-out: EC50 against T. gondii; for Selectivity Index (SI): Vero Cell (EC50)/T. gondii EC50
Method: Vero cells were harvested by trypsinization when it reached 80–90% confluence. A volume of 100 μl diluted Vero cells of (6 x 10^4 cells/ml) in GM was cultured in triplicate wells of a 96-well plate and incubated for 24 hours. Then, 100 μl of tachyzoites (3 x 10^5 /ml) in GM2 (comprising DMEM, 0.5% PS and 2% FBS) were added into the Vero cell-seeded wells. A volume of 100 ul the above medium was added to the negative control well and the plate was incubated for six hours. Subsequently, the wells were washed twice with WM to remove non-adherent parasites. A volume of 100 μl of GM2 was added and again incubated for 18 hours. […] The negative control well contained 100 μl Vero cells and PBS in control wells for NCI compounds.
The percent cell viability was proportional to the mortality of T. gondii. The graphs were plotted and analyses their statistical data using Prism 5.0 (GraphPad Software Inc., CA USA) (S2 Dataset and S4 Dataset). […] Selectivity refers to the mean of the EC50 value for Vero cells relative to the mean of the EC50 value of the T. gondii. A P value of less than 0.05 was considered statistically significant and all data points represent the mean of three independent experiments. SI (selectivity index) measures the strength of inhibition against the Vero cells and the T. gondii.
SelectivityIndex(SI)=VeroCell(EC50)/T.gondiiEC50

[3] = T. gondii-infected Vero cells, 24 hours treatment, MTS-PMS
[4] = T. gondii-infected Vero cells, 24 hours treatment, MTS-PMS, molar value in brackets

Compound: O=c1[nH]cc(F)c(=O)[nH]1 [5-Fluorouracil, 5-fluorouracil, reference compound]
- EC50 ([1]; 24 hours treatment, MTS-PMS): 9.72 µg/mL (≈ 74.7 µM)

Compound: Nc1ccc(C(=O)c2cccs2)cn1 [NSC343344, (6-aminopyridin-3-yl)(thiophen-2-yl)methanone]
- EC50 ([1]; 24 h): 29.6 µg/mL (≈ 145 µM)
- EC50 against T. gondii [2, 3]: Inactive

Compound: Nc1cc(Cl)ccc1N1C(=O)CCC1=O [NSC660301, 1-(2-amino-4-chlorophenyl)pyrrolidine-2,5-dione]
- EC50 ([1]; 24 hours treatment, MTS-PMS): 22.3 µg/mL (≈ 99.2 µM)
- EC50 [2, 4]: 15 µM
- EC50 [2, 3]: 3.43 µg/mL
- Selectivity Index (SI) [2]: 6.5

Compound: NCCN1CCNCC1 [NSC38968, 2-(piperazin-1-yl)ethan-1-amine]
- EC50 ([1]; 24 hours treatment, MTS-PMS): 21.5 µg/mL (≈ 166 µM)
- EC50 [2, 4]: 37 µM
- EC50 [2, 3]: 4.82 µg/mL
- Selectivity Index (SI) [2]: 4.5

Compound: CC1=C(C(N)=O)S(=O)(=O)c2ccccc21 [NSC108972, 3-methyl-1,1-dioxo-1 H -1-benzothiophene-2-carboxamide]
- EC50 ([1]; 24 hours treatment, MTS-PMS): 28 µg/mL (≈ 126 µM)
- EC50 [2, 4]: 32 µM
- EC50 [2, 3]: 7.17 µg/mL
- Selectivity Index (SI) [2]: 3.9

Compound: NS(=O)(=O)c1ccc(Cl)cc1[N+](=O)[O-] [NSC81213, 4-chloro-2-nitrobenzene-1-sulfonamide]
- EC50 ([1]; 24 hours treatment, MTS-PMS): 24.6 µg/mL (≈ 104 µM)
- EC50 [2, 4]: 20 µM
- EC50 [2, 3]: 4.75 µg/mL
- Selectivity Index (SI) [2]: 5.2

Compound: CCOC1CCc2c(C)nc(N)nc2S1 (stereo not shown) [NSC77468, 7-ethoxy-4-methyl-6,7-dihydro-5H-thiopyrano[2,3-d]pyrimidin-2-amine]
- EC50 ([1]; 24 hours treatment, MTS-PMS): 47.8 µg/mL (≈ 212 µM)
- EC50 [2, 4]: 8.5 µM
- EC50 [2, 3]: 1.92 µg/mL
- Selectivity Index (SI) [2]: 25

Compound: COc1ccccc1N1C(=O)CC(Sc2cccc(N)c2)C1=O (stereo not shown) [NSC153391, 3-[(3-aminophenyl)sulfanyl]-1-(2-methoxyphenyl)pyrrolidine-2,5-dione]
- EC50 ([1]; 24 hours treatment, MTS-PMS): 24.7 µg/mL (≈ 75.3 µM)
- EC50 against T. gondii [2, 3]: Inactive

Compound: C1CC2CCNC3CCNC(C1)N23 (stereo not shown) [NSC81462, dodecahydro-1,4,9b-triazaphenalene]
- EC50 ([1]; 24 h): 39 µg/mL (≈ 215 µM)
- EC50 ([2]; Vero, 24 h): 3.24 µg/mL and 17.8 µM
- Selectivity Index (SI) [2]: 12.0
